Laboratory results published in publication PMC8838415, “Discovery of Novel Pleuromutilin Derivatives as Potent Antibacterial Agents for the Treatment of MRSA Infection” (Molecules, 2022).
pKd: −log10 of the molar value. Converted amounts (≈) assume the structure as drawn.

Tests used:
S. aureus (ATCC 29213) = assay: MIC and MBC, broth dilution, S. aureus ATCC 29213; type: cell-based; conditions: Staphylococcus aureus, ATCC29213
Description: (§1) The synthesized pleuromutilin derivatives 8–30 were tested against four Gram-positive bacteria (MRSA ATCC 43300, S. aureus ATCC 29213 and two clinical strains of S. aureus (AD3 and 144) isolated from Guangdong Province). Tiamulin was used as the positive control in this experiment.
(§2) MIC values were tested following our previous work. The derivatives were dissolved in an aqueous solution of 2.5% tween-80 and 2.5% DMSO to make a solution with a concentration of 1000 µg/mL. The solution was diluted 12 times with MH broth to give a concentration range of 32–0.01 µg/mL. The bacteria (5 × 10^5 CFU/mL) were added in each well. For each compound concentration, three parallel experiments were set. The 96-well plate was incubated for 22–26 h at 37 °C. The MIC value was recorded as the minimal concentration that inhibits the visible growth of tested bacteria completely.
(§3) The MBC of these pleuromutilin derivatives were tested according to a previously reference. […] Then, the values of MBC were determined by laying 100 μL aliquots from the wells onto the MH agar plates without visible growth. The MH agar plate was cultured for a further 22–26 h at 37 °C.

50S ribosome = assay: SPR interaction and affinity analysis; type: binding, S. aureus ATCC 43300; conditions: 4 °C; for Avg kd / Avg ka: 1:1 Langmuir binding; for pKd: KD = Kd/Ka
Description: S. aureus ATCC 43300 was used to prepare the 50S ribosomal subunit the same way as described previously. Cells were grown overnight in Brain Heart Infusion broth at 37 °C and harvested for 1.5 h at an OD600. Cells were washed with 10 mM Tris-HCl twice at pH = 7.5, and resuspended in 5 mL buffer A (20 mM HEPES-HCl pH = 7.5, 21 mM Mg(OAc)2, 100 mM NH4Cl, 1 mM DTT, 1 mM EDTA). Cells were broken by an ultrasound crusher. The lysate was centrifuged for 90 min at 20,000× g to clear cell debris.
The solution was layered on a sucrose cushion of 15 mL (10 mM Hepes-KOH pH 7.5, 25 mM Mg(OAc)2, 500 mM KCl, […], 1 mM DTT, 0.5 mM EDTA). Centrifugation was carried out for 15 h at 45,000 rpm using an ultracentrifuge Beckman (Beckman Coulter, Shanghai, China), Type 70Ti rotor. The crude ribosome pellet was resuspended in buffer E (10 mM Hepes-KOH pH 7.5, 10 mM Mg(OAc)2, 100 mM KCl, 1 mM DTT, 0.5 mM EDTA), then layered on 9 mL of 7–30% sucrose gradient and centrifuged in an ultracentrifuge Beckman, type SW40Ti rotor at 17,100 rpm for 15 h. The gradient was analyzed on the AKTA explorer system (Amersham, UK). The fractions corresponding to the 50S ribosomal subunit were collected and further subjected to precipitation by PEG 20,000. The 50S ribosomal subunit pellet was gently dissolved in 200 µL of storage buffer (10 mM HEPES-HCl pH = 7.5, 10 mM Mg(OAc)2, 15 mM KCl, 60 mM NH4Cl, 1 mM DTT) and stored at −80 °C.
SPR affinity analysis was performed on the bScreen LB 991 Label-free Microarray System (Berthold Technologies, Black Forest, Germany) at 4 °C and Biodot AD-1520 Array Printer (BIODOT Inc., Irvine, CA, USA) with a Photo-cross-linker SensorCHIP™. Concentrations of each compound were diluted to 100 μM with DMSO as the printing working solution for immobilization. A Biodot AD-1520 Array Printer (BIODOT Inc., CA, USA) was used to control the photo-cross-linker sensor chip and print samples. Each sample was printed four times. In order to check the chip quality and check whether the detection system works, DMSO was used as a system-negative control and rapamycin as a positive control. All positive control dots were divided into four groups and printed on the four corners of the sensor chip. The sensor chip was dried in vacuum after the array print and quickly transferred to a spectra radiator for a photo cross-linking reaction. The sensor chip was washed with C2H5OH, DMF and H2O in turn and evaporated in a N2 atmosphere for 15 min. Then, the Flowcell Cover were assembled.
The 50S ribosome was diluted separately to 200 nM, 400 nM, 800 nM, 1600 nM and 3200 nM with PBST (pH = 7.4, 0.1% Tween 20). Different concentrations of ribosome solutions were injected at a flow rate of 0.5 μL⋅s^−1 for 600 s at the associating stage at 4 °C, followed by PBST at a flow rate of 0.5⋅μL·s^−1 for 360 s at each dissociating stage. Then, the surface was regenerated with Glycine-HCl (pH = 2.0) at a flow rate of 2⋅μL·s^−1 for 300 s.
The raw data of the binding process of compounds and the 50S ribosome were recorded in real time. We compared the response unit (RU) of surface resonance to determine the different binding affinity between each sample dot. The process and analysis of association rate constants (Ka) and dissociation rate constants (Kd) and the equilibrium dissociation constant (KD, Kd/Ka) were performed using the data analysis software of the bScreen LB 991 Label-free Microarray System according to a single-site binding model (1:1 Langmuir binding) with mass transfer limitations for binding kinetics determination.

S. aureus (AD3) = assay: MIC and MBC, broth dilution, S. aureus AD3; type: cell-based; conditions: Staphylococcus aureus; S. aureus AD3 (clinical strain)
Description: as §1, §2, §3

[1] = tested on: methicillin-resistant S. aureus (ATCC 43300); assay: MIC and MBC, broth dilution, MRSA ATCC 43300; type: cell-based; conditions: Staphylococcus aureus
Description: as §1, §2, §3

S. aureus (144) = assay: MIC and MBC, broth dilution, S. aureus 144; type: cell-based; conditions: Staphylococcus aureus; S. aureus 144 (clinical strain)
Description: as §1, §2, §3

Row | Molecule | MBC (S. aureus (ATCC 29213)) [µg/mL] | MIC (S. aureus (ATCC 29213)) [µg/mL] | Avg kd (50S ribosome) [s⁻¹] | pKd (50S ribosome) | MBC (S. aureus (AD3)) [µg/mL] | MIC (S. aureus (AD3)) [µg/mL] | MBC [1] [µg/mL] | MIC [1] [µg/mL] | melting point [°C] | MBC (S. aureus (144)) [µg/mL] | MIC (S. aureus (144)) [µg/mL] | Avg ka (50S ribosome) [M⁻¹ s⁻¹]
1 | C=C[C@]1(C)C[C@@H](OC(=O)CNc2cccc(Br)c2)[C@]2(C)[C@H](C)CC[C@]3(CCC(=O)[C@H]32)[C@@H](C)[C@@H]1O [Compound 12, 22-(3-Bromoanilineyl)-22-deoxypleuromutilin] | 0.5 (≈ 0.939 µM) | 0.25 (≈ 0.469 µM) | 6.25e-05 | 5.82 | 1 (≈ 1.88 µM) | 0.25 (≈ 0.469 µM) | 0.25 (≈ 0.469 µM) | 0.12 (≈ 0.225 µM) | 161 to 163 | 2 (≈ 3.76 µM) | 1 (≈ 1.88 µM) | –
2 | C=C[C@]1(C)C[C@@H](OC(=O)CN2CCSCC2)[C@]2(C)[C@H](C)CC[C@]3(CCC(=O)[C@H]32)[C@@H](C)[C@@H]1O [Compound 30, 22-Thiomorpholine-22-deoxypleuromutilin] | 2 (≈ 4.31 µM) | 1 (≈ 2.16 µM) | 0.00021 | 5.11 | 4 (≈ 8.63 µM) | 1 (≈ 2.16 µM) | 2 (≈ 4.31 µM) | 1 (≈ 2.16 µM) | 82 to 83 | 4 (≈ 8.63 µM) | 2 (≈ 4.31 µM) | –
3 | C=C[C@]1(C)C[C@@H](OC(=O)CNCCS(C)(=O)=O)[C@]2(C)[C@H](C)CC[C@]3(CCC(=O)[C@H]32)[C@@H](C)[C@@H]1O [Compound 25, 22-(2-(Methylsulfonyl)ethylamineyl)-22-deoxypleuromutilin] | 2 (≈ 4.14 µM) | 2 (≈ 4.14 µM) | 0.00833 | 2.51 | 4 (≈ 8.27 µM) | 2 (≈ 4.14 µM) | 2 (≈ 4.14 µM) | 1 (≈ 2.07 µM) | 183 to 186 | 8 (≈ 16.5 µM) | 4 (≈ 8.27 µM) | 2.70
4 | C=C[C@]1(C)C[C@@H](OC(=O)CNCCCC)[C@]2(C)[C@H](C)CC[C@]3(CCC(=O)[C@H]32)[C@@H](C)[C@@H]1O [Compound 21, 22-Butylamineyl-22-deoxypleuromutilin] | 4 (≈ 9.22 µM) | 4 (≈ 9.22 µM) | 0.0231 | 2.26 | 8 (≈ 18.4 µM) | 4 (≈ 9.22 µM) | 4 (≈ 9.22 µM) | 2 (≈ 4.61 µM) | 74 to 75 | 8 (≈ 18.4 µM) | 8 (≈ 18.4 µM) | 4.24
5 | penicillin [reference compound] | – | – | 0.515 | – | – | – | – | – | – | – | – | 2.10
6 | C=C[C@]1(C)C[C@@H](OC(=O)CNc2cccc(F)c2)[C@]2(C)[C@H](C)CC[C@]3(CCC(=O)[C@H]32)[C@@H](C)[C@@H]1O [Compound 8] | 0.25 (≈ 0.53 µM) | 0.12 (≈ 0.254 µM) | – | – | 0.5 (≈ 1.06 µM) | 0.12 (≈ 0.254 µM) | 0.12 (≈ 0.254 µM) | 0.03 (≈ 0.0636 µM) | – | 0.5 (≈ 1.06 µM) | 0.25 (≈ 0.53 µM) | –
